Columns and labels:
[1] = Biodistribution of 6-F3 βCD at 15 minutes after a single intravenous dose; type: in vivo, BALB/C mouse; details: mouse
Experimental: (§1) A Bruker AM-300 (7.05 Tesla, 282.39 Mhz) and a Bruker CXP-100 (2.35 Telsa, 94.26 Mhz, 40 cm. bore) spectrometer were used for ^19 F NMR spectroscopy. The CXP-100 spectrometer was used with a 20 mm diameter, three turn horizontal coil. The biodistribution and excretion study of Example 4 was performed on the CXP-100 spectrometer, while ^1 H, ^13 C and ^19 F NMR spectra for synthesized compounds, blood, urine and extracts of liver were obtained using the Bruker AM-300 instrument. The ^19 F NMR were acquired over a spectral width of 70.0 ppm (between +60.0 and -10.0 ppm). The number of scans varied from 2.5 k to 45 k scans depending on the size of biological samples. An aqueous solution of chromium acetate (90 μL; 0.1M) was used as a relaxation agent to enhance the S/N ratio. Exponential line broadening of 0-40 Hz was imposed on the data prior to Fourier transformation. An aqueous solution of potassium fluoride (5 μL; 0.2M) was used as an internal standard during acquisition of ^19 F NMR spectra while ^1 H and ^13 C NMR spectra were locked on deuterium. D2 O was used as a solvent for samples of blood, urine and liver extract) which appeared at δ4.68 ppm (^1 H NMR spectra) with respect to tetramethylsilane. The resolution limits for ^1 H, ^13 C and ^19 F were observed between 0.5-1.1, 2.0-3.0 and 1.3-20.0 Hz, respectively. The chemical shifts are reported in δ ppm.
6-F3 βCD (90 mg/ml in water) was administered to a BALB/C mouse by intravenous injection through the tail vein, at a dose of 13.5 mg 6-F3 βCD per mouse. The mouse was placed in a beaker layered with filter paper to absorb the urine excreted during the experiment. 15 minutes after administration of the drug complex, blood was collected by cardiac puncture, the mouse was sacrificed by euthanasia in dry ice and the desired organs were collected by dissection. All samples were immediately frozen and held frozen until NMR studies.

[2] = Metabolic degradation after intravenous injection of 6-F3 βCD; type: in vivo, BALB/C mouse; details: mouse, i.v. injection, over the first fifteen minutes; 15 min
Experimental: as §1, with “ppm. […]” for “ppm.”

For O[C@@H]1[C@@H](O)[C@H]2O[C@H]3[C@H](O)[C@@H](O)[C@@H](O[C@H]4[C@H](O)[C@@H](O)[C@@H](O[C@H]5[C@H](O)[C@@H](O)[C@@H](O[C@H]6[C@H](O)[C@@H](O)[C@@H](O[C@H]7[C@H](O)[C@@H](O)[C@@H](O[C@H]8[C@H](O)[C@@H](O)[C@@H](O[C@@H]1[C@@H](COCC(F)(F)F)O2)O[C@@H]8COCC(F)(F)F)O[C@@H]7COCC(F)(F)F)O[C@@H]6COCC(F)(F)F)O[C@@H]5COCC(F)(F)F)O[C@@H]4COCC(F)(F)F)O[C@@H]3COCC(F)(F)F [6-F3 βCD, Heptakis [6.0-(2,2,2-trifluoroethyl)]-β-cyclodextrin], the “% Dose in tail” value ([1]; single i.v. 13.5 mg per mouse (tail vein), tail) was 2.14 % Dose, the “% Dose in blood” value ([1]; single i.v. 13.5 mg per mouse, blood) was 62.59 % Dose and the “% Dose in intestine” value ([1]; single i.v. 13.5 mg per mouse, intestine) was 0.72 % Dose. For the same molecule, the “% Dose in kidney” value ([1]; single i.v. 13.5 mg per mouse, kidney) was 1.87 % Dose, the “% Dose in liver” value ([1]; single i.v. 13.5 mg per mouse, liver) was 4.09 % Dose and the “% Dose in urine” value ([1]; single i.v. 13.5 mg per mouse, urine) was 40.96 % Dose. The “metabolic degradation, share of the administered dose” value [2] was “less than 5%”.

Source: patent US5739121A, “Fluorocyclosaccharide drug delivery systems” (University of Alberta, priority 1993, dated 1998)
